Test [1] concerns the target T1, biotinylated wild-type menin and MLL-AF9 fusion protein (menin/MLL binding) (Homo sapiens, UniProt O00255).
T1 construct: made in house; host or cells: menin: E. coli; MLL-AF9-FLAG: HEK293 cells, used as cleared lysate
T1 sequence (O00255 1-610): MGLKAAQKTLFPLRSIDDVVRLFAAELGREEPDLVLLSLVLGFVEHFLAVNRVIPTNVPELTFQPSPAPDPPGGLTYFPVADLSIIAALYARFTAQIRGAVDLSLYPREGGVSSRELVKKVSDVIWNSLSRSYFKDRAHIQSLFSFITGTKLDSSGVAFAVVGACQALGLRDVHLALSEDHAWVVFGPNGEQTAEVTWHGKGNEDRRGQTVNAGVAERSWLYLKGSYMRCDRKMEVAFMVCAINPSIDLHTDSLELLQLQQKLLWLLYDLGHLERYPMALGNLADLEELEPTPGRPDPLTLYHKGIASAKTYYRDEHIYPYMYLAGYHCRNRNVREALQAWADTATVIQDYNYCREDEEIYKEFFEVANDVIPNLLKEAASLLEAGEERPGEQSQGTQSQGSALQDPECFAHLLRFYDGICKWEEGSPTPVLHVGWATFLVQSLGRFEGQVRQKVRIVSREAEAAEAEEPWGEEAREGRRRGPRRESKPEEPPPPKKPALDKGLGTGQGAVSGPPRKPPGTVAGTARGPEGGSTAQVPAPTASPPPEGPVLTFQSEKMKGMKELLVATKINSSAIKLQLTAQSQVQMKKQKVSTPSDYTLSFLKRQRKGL
Nature of the test: Assay 1: menin/MLL binding AlphaLISA assay, wild-type menin. The settings on record: Table 30; column head does not say wild-type or mutated menin. The method, boiled down:
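Compound was preincubated 30 min at room temperature with biotinylated menin (5 nM) and MLL-AF9-FLAG lysate from HEK293 cells, pH 7.4 buffer with 5% DMSO and DTT. Bead-based Alpha signal after 60 min with streptavidin donor and anti-FLAG acceptor beads; four-parameter logistic fit gave IC50.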
On the technique in general: In Alpha technology, singlet oxygen from a donor bead excites a nearby acceptor bead.

Test [2] has as its system human acute monocytic leukemia cell line MV-4-11. Nature of the test: Assay 2: cell proliferation assay (ATP quantitation, CellTiter-Glo), MV-4-11. Type of test: cell-based. The settings on record: MV-4-11 cells. In a few lines: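 MV-4-11 cells, 1.67×10^4 per well in medium with 10% FBS, were exposed to compound for 72 h at 37° C., 5% CO2; HL-60 cells served as toxicity control. Proliferation read as ATP content by CellTiter-Glo luminescence.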
In general terms: Cellular ATP, detected with luciferase, serves as a proxy for viable cell number.

Here are results for 19 compounds from patent publication US12312359B2 (Vitae Pharmaceuticals, LLC, priority 2016, dated 2025).

The structures appear in SMILES notation.

The term IC50 denotes the concentration needed to halve the response being measured. Lower therefore signals greater potency. What is called EC50 is the concentration giving half of the maximal effect. Low values mean greater potency, high ones weaker potency. Take `CC(C)c1ncncc1-c1cc(F)ccc1Oc1cnccc1N1CCC2(CCN(Cc3ccc4[nH]c(=O)[nH]c4c3)C2)C1` (centres unmarked) [Example 28, 5-((7-(3-(4-fluoro-2-(4-isopropylpyrimidin-5-yl)phenoxy)pyridin-4-yl)-2,7-diazaspiro[4.4]nonan-2-yl)methyl)-1,3-dihydro-2H-benzo[d]imidazol-2-one]: the 50% inhibitory concentration (IC50) in test [1] was < 100 nM. The concentration for a half-maximal effect (EC50) in test [2] (Homo sapiens, MV4-11, 72 h) is < 100 nM.

For the compound `CCC(C)(OC)c1cc(F)ccc1Oc1cncnc1N1CCC2(CCN(Cc3ccc4[nH]c(=O)[nH]c4c3)C2)C1` (centres unmarked) [Example 33, 5-((7-(5-(4-fluoro-2-(2-methoxybutan-2-yl)phenoxy)pyrimidin-4-yl)-2,7-diazaspiro[4.4]nonan-2-yl)methyl)-1,3-dihydro-2H-benzo[d]imidazol-2-one], the IC50 in test [1] was < 100 nM. In test [2] (Homo sapiens, MV4-11, 72 h), this compound yielded an EC50 of 100 to 1000 nM.

Take `CCC(O)(CC)c1cc(F)ccc1Oc1cncnc1N1CCC2(CCN(Cc3ccc4[nH]c(=O)[nH]c4c3)C2)C1` (centres unmarked) [Example 34, 5-((7-(5-(4-fluoro-2-(3-hydroxypentan-3-yl)phenoxy)pyrimidin-4-yl)-2,7-diazaspiro[4.4]nonan-2-yl)methyl)-1,3-dihydro-2H-benzo[d]imidazol-2-one]: the IC50 in test [1] is < 100 nM. For the same compound, the EC50 in test [2] (Homo sapiens, MV4-11, 72 h) is ≥ 1000 nM.

Turning to `CC(C)(O)CCc1cc(F)ccc1Oc1cncnc1N1CCC2(CCN(Cc3ccc4[nH]c(=O)[nH]c4c3)C2)C1` (centres unmarked) [Example 36, 5-((7-(5-(4-fluoro-2-(3-hydroxy-3-methylbutyl)phenoxy)pyrimidin-4-yl)-2,7-diazaspiro[4.4]nonan-2-yl)methyl)-1H-benzo[d]imidazol-2(3H)-one], in test [1], the IC50 is < 100 nM. In addition, in test [2] (Homo sapiens, MV4-11, 72 h), the concentration for a half-maximal effect (EC50) was 100 to 1000 nM.

With `COC(=O)[C@@H]1CC1c1cc(F)ccc1Oc1cncnc1N1CCC2(CCN(Cc3ccc4[nH]c(=O)[nH]c4c3)C2)C1` (some centres unmarked) [Example 37, Methyl 2-(5-fluoro-2-((4-(7-((2-oxo-2,3-dihydro-1H-benzo[d]imidazol-5-yl)methyl)-2,7-diazaspiro[4.4]nonan-2-yl)pyrimidin-5-yl)oxy)phenyl)cyclopropanecarboxylate], in test [1], the IC50 is < 100 nM. For the same compound, in test [2] (Homo sapiens, MV4-11, 72 h), the EC50 lay in the range of 100 to 1000 nM.

For `CNC(=O)C1CC1c1cc(F)ccc1Oc1cncnc1N1CCC2(CCN(Cc3ccc4[nH]c(=O)[nH]c4c3)C2)C1` (centres unmarked) [Example 38, 2-(5-fluoro-2-((4-(7-((2-oxo-2,3-dihydro-1H-benzo[d]imidazol-5-yl)methyl)-2,7-diazaspiro[4.4]nonan-2-yl)pyrimidin-5-yl)oxy)phenyl)-N-methylcyclopropane carboxamide], the IC50 in test [1] is < 100 nM. In test [2] (Homo sapiens, MV4-11, 72 h), the EC50 is ≥ 1000 nM.

Take `NS(=O)(=O)c1ccc2c(c1)CC(C(=O)N1CC3(C1)CN(c1ncncc1Oc1ccc(F)cc1Cl)C3)C2` (centres unmarked) [Example 40, 2-(6-(5-(2-chloro-4-fluorophenoxy)pyrimidin-4-yl)-2,6-diazaspiro[3.3]heptane-2-carbonyl)-2,3-dihydro-1H-indene-5-sulfonamide]: in test [1], the half-maximal inhibitory concentration (IC50) lay in the range of 100 to 1000 nM. Also, in test [2] (Homo sapiens, MV4-11, 72 h), the EC50 is ≥ 1000 nM.

As for `CC(C)c1ccccc1-c1cc(F)ccc1Oc1cncnc1N1CCC2(CCN(Cc3ccc4[nH]c(=O)[nH]c4c3)C2)C1` (centres unmarked) [Example 41, 5-((7-(5-((5-fluoro-2′-isopropyl-[1,1′-biphenyl]-2-yl)oxy)pyrimidin-4-yl)-2,7-diazaspiro[4.4]nonan-2-yl)methyl)-1H-benzo[d]imidazol-2(3H)-one], the IC50 in test [1] is < 100 nM. Moreover, the EC50 in test [2] (Homo sapiens, MV4-11, 72 h) is < 100 nM.

On to `NC(=O)c1ccc(-c2cc(F)ccc2Oc2cncnc2N2CCC3(CCN(Cc4ccc5[nH]c(=O)[nH]c5c4)C3)C2)c(C2CC2)c1` (centres unmarked) [Example 43, 2-cyclopropyl-5′-fluoro-2′-((4-(7-((2-oxo-2,3-dihydro-1H-benzo[d]imidazol-5-yl)methyl)-2,7-diazaspiro[4.4]nonan-2-yl)pyrimidin-5-yl)oxy)-[1,1′-biphenyl]-4-carboxamide], for which the IC50 in test [1] was < 100 nM. In addition, the EC50 in test [2] (Homo sapiens, MV4-11, 72 h) was < 100 nM.

With `O=C(O)c1ccc(-c2cc(F)ccc2Oc2cncnc2N2CCC3(CCN(Cc4ccc5[nH]c(=O)[nH]c5c4)C3)C2)c(C2CC2)c1` (centres unmarked) [Example 44, 2-cyclopropyl-5′-fluoro-2′-((4-(7-((2-oxo-2,3-dihydro-1H-benzo[d]imidazol-5-yl)methyl)-2,7-diazaspiro[4.4]nonan-2-yl)pyrimidin-5-yl)oxy)-[1,1′-biphenyl]-4-carboxylic acid], in test [1], the IC50 is < 100 nM. Besides, in test [2] (Homo sapiens, MV4-11, 72 h), the EC50 is 100 to 1000 nM.

As for `CN(C)C(=O)c1ccc(-c2cc(F)ccc2Oc2cncnc2N2CCC3(CCN(Cc4ccc5[nH]c(=O)[nH]c5c4)C3)C2)c(C2CC2)c1` (centres unmarked) [Example 45, 2-cyclopropyl-5′-fluoro-N,N-dimethyl-2′-((4-(7-((2-oxo-2,3-dihydro-1H-benzo[d]imidazol-5-yl)methyl)-2,7-diazaspiro[4.4]nonan-2-yl)pyrimidin-5-yl)oxy)-[1,1′-biphenyl]-4-carboxamide], in test [1], the concentration for half-maximal inhibition (IC50) was < 100 nM. Besides, the EC50 in test [2] (Homo sapiens, MV4-11, 72 h) was < 100 nM.

With `CC(C)c1ccccc1-c1cc(F)c(F)cc1Oc1cncnc1N1CCC2(CCN(Cc3ccc4[nH]c(=O)[nH]c4c3)C2)C1` (centres unmarked) [Example 47, 5-((7-(5-((4,5-difluoro-2′-isopropyl-[1,1′-biphenyl]-2-yl)oxy)pyrimidin-4-yl)-2,7-diazaspiro[4.4]nonan-2-yl)methyl)-1H-benzo[d]imidazol-2(3H)-one], the IC50 in test [1] is < 100 nM. This compound also yielded a 50% effective concentration (EC50) in test [2] (Homo sapiens, MV4-11, 72 h) of 100 to 1000 nM.

As to `Cc1cc(C#N)ccc1-c1cc(F)ccc1Oc1cncnc1N1CCC2(CCN(Cc3ccc4[nH]c(=O)[nH]c4c3)C2)C1` (centres unmarked) [Example 48, 5′-fluoro-2-methyl-2′-((4-(7-((2-oxo-2,3-dihydro-1H-benzo[d]imidazol-5-yl)methyl)-2,7-diazaspiro[4.4]nonan-2-yl)pyrimidin-5-yl)oxy)-[1,1′-biphenyl]-4-carbonitrile], the IC50 in test [1] is < 100 nM. In addition, the EC50 in test [2] (72 h) was 100 to 1000 nM.

`Cc1cc(C#N)cc(C)c1-c1cc(F)ccc1Oc1cncnc1N1CCC2(CCN(Cc3ccc4[nH]c(=O)[nH]c4c3)C2)C1` (centres unmarked) [Example 51, 5′-fluoro-2,6-dimethyl-2′-((4-(7-((2-oxo-2,3-dihydro-1H-benzo[d]imidazol-5-yl)methyl)-2,7-diazaspiro[4.4]nonan-2-yl)pyrimidin-5-yl)oxy)-[1,1′-biphenyl]-4-carbonitrile]: the IC50 in test [1] is < 100 nM. For the same compound, the EC50 in test [2] (Homo sapiens, MV4-11, 72 h) is < 100 nM.

Consider `N#Cc1ccc(-c2cc(F)cc(F)c2Oc2cncnc2N2CCC3(CCN(Cc4ccc5[nH]c(=O)[nH]c5c4)C3)C2)c(C2CC2)c1` (centres unmarked) [Example 52, 2-cyclopropyl-3′,5′-difluoro-2′-((4-(7-((2-oxo-2,3-dihydro-1H-benzo[d]imidazol-5-yl)methyl)-2,7-diazaspiro[4.4]nonan-2-yl)pyrimidin-5-yl)oxy)-[1,1′-biphenyl]-4-carbonitrile], for which the 50% inhibitory concentration (IC50) in test [1] is < 100 nM. Moreover, in test [2] (72 h), the 50% effective concentration (EC50) was < 100 nM.

Take `CC(C)c1nccn1-c1cc(F)ccc1Oc1cncnc1N1CCC2(CCN(Cc3ccc4[nH]c(=O)[nH]c4c3)C2)C1` (centres unmarked) [Example 53, 5-((7-(5-(4-fluoro-2-(2-isopropyl-1H-imidazol-1-yl)phenoxy)pyrimidin-4-yl)-2,7-diazaspiro[4.4]nonan-2-yl)methyl)-1H-benzo[d]imidazol-2(3H)-one]: the IC50 in test [1] was < 100 nM. Besides, the EC50 in test [2] (Homo sapiens, MV4-11, 72 h) was < 100 nM.

Take `O=c1[nH]c2ccc(CN3CCC4(CCN(c5ncncc5Oc5ccc(F)cc5OCC5CC5)C4)C3)cc2[nH]1` (centres unmarked) [Example 54, 5-((7-(5-(2-(cyclopropylmethoxy)-4-fluorophenoxy)pyrimidin-4-yl)-2,7-diazaspiro[4.4]nonan-2-yl)methyl)-1,3-dihydro-2H-benzo[d]imidazol-2-one]: in test [1], the IC50 is < 100 nM. The compound also registered an EC50 in test [2] (Homo sapiens, MV4-11, 72 h) of 100 to 1000 nM.

For `CC(O)c1ccccc1-c1cc(F)ccc1Oc1cncnc1N1CCC2(CCN(Cc3ccc4[nH]c(=O)[nH]c4c3)C2)C1` (centres unmarked) [Example 60, 5-((7-(5-((5-fluoro-2′-(1-hydroxyethyl)-[1,1′-biphenyl]-2-yl)oxy)pyrimidin-4-yl)-2,7-diazaspiro[4.4]nonan-2-yl)methyl)-1H-benzo[d]imidazol-2(3H)-one], the half-maximal inhibitory concentration (IC50) in test [1] was < 100 nM. The compound also came in with an EC50 in test [2] (Homo sapiens, MV4-11, 72 h) of 100 to 1000 nM.

With `CC(C)N(C)C(=O)c1cc(F)ccc1Oc1cncnc1N1CCC2(CCN(Cc3ccc(N4CCOC4=O)cc3)C2)C1` (centres unmarked) [Example 62, 5-fluoro-N-isopropyl-N-methyl-2-((4-(7-(4-(2-oxooxazolidin-3-yl)benzyl)-2,7-diazaspiro[4.4]nonan-2-yl)pyrimidin-5-yl)oxy)benzamide], the IC50 in test [1] was < 100 nM. This compound also came in with an EC50 in test [2] (72 h) of 100 to 1000 nM.
